These are literature values, as cited in US20030212034A1, “Method of treatment of obesity and paralyzed muscle and ergogenic aids” (priority 2002, published 2003).

This data set deals with AMPK. Particulars: analogues of 5′-AMP; Hardie & Carling 1997; cited from earlier work.

In the case of `NC(=O)c1ncn([C@@H]2O[C@H](COP(=O)(O)O)[C@@H](O)[C@H]2O)c1N` [ZMP], the “potency of AMPK activation in vitro” value is “less potently”.

For the molecule `Nc1ncnc2c1ncn2[C@@H]1O[C@H](COP(O)(O)=S)[C@@H](O)[C@H]1O` [adenosine-5′-thiomonophosphate], the “potency of AMPK activation in vitro” value was “more potently”.

Turning to `Nc1ncnc2c1ncn2[C@@H]1O[C@H](COP(N)(=O)O)[C@@H](O)[C@H]1O` [adenosine 5′-phosphoramidate], the “potency of AMPK activation in vitro” value was “more potently”.

For the molecule `Nc1ncnc2c([C@@H]3O[C@H](COP(=O)(O)O)[C@@H](O)[C@H]3O)[nH]nc12` [Formycin A 5′-monophosphate], the “potency of AMPK activation in vitro” value is listed as “less potently”.
